Results taken from patent US20210038742A1, “CONJUGATION OF TLR7 AGONIST TO NANO-MATERIALS ENHANCES THE AGONISTIC ACTIVITY” (priority 2019, published 2021).

Key:
NLRP3 inflammasome = assay: IL-1β release in BMDCs (ELISA); type: cell-based, mouse; conditions: supernatant
Experimental: FIGS. 5A-5C. TLR7 agonist-silica nanoshells conjugates generate high level of IL-1p in BMDCs. 75-2500 nM of TLR7 agonist-silcia shells conjugates were incubated with BMDCs for 24 hours at 37° C., 5% CO2. IL-1β level in supernatant was determined by ELISA. Mechanism figure reference: He, Y. et. al. (2016).
FIG. 24. In vitro IL-1β release of NS-TLR and mixture in BMDCs. 75-2500 nM of NS-TLR (high coating density) and mixture of silica nanoshells and 1V209 were incubated with wild type BMDCs for 18 hours. IL-1p cytokine was measured via ELISA. Dose response curves are in means SD. Data were analyzed by t test.
IL-1β secretion by dendritic cells is mandatory for T cell priming (Ghiringhelli et al., 2009). A two-pronged pathway has been proposed for NLRP3 inflammasome activation in macrophages and DCs. In this model, the first signal is triggered by microbial or endogenous molecules that generate NLRP3 and pro-IL-1p expression through activation of NF-κB; the second signal is triggered by ATP, pore-forming toxins, viral RNA and particulate matters such as silica nanoparticles. […] Resting DCs/macrophages have insufficient NLRP3 in the cells, and therefore, incubating with NLRP3 activator (silica nanoshells) results in no or minimal IL-1β.

TLR7 [1] = target: T1, TLR7 (Mus musculus, UniProt P58681); assay: IL-6 release in mouse BMDCs (ELISA); type: cell-based
T1 construct: endogenous in cells; host or cells: mouse bone marrow-derived dendritic cells (BMDCs)
T1 sequence (P58681 27-1050): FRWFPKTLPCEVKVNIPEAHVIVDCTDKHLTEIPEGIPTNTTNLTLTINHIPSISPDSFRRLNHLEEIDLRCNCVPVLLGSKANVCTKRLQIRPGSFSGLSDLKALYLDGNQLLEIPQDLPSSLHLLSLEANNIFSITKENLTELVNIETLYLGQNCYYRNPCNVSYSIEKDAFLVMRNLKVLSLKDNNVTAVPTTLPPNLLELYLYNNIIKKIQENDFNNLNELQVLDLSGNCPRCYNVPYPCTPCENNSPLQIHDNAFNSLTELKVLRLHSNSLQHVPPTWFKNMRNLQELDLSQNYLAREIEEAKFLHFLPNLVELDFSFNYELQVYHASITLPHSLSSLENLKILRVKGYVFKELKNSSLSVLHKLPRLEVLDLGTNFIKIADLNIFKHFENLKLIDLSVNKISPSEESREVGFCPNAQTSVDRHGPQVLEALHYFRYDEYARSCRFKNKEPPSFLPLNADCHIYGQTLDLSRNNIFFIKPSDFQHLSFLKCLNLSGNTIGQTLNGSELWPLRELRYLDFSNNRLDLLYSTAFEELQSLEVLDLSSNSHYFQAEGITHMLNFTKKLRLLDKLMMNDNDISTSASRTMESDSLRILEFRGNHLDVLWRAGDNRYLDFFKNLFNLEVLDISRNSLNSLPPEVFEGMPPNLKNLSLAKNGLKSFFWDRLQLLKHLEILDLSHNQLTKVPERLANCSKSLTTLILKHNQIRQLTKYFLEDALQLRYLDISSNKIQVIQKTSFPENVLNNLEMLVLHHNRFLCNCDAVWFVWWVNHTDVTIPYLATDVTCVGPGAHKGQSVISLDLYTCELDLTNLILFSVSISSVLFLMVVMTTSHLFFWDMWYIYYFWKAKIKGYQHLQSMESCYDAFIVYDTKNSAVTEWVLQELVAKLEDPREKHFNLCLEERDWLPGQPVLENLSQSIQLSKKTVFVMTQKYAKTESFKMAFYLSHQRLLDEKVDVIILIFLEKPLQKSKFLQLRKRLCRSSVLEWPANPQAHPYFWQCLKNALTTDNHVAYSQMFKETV
Experimental: (§1) FIGS. 4A-4E. […] Mouse BMDCs or human PBMCs were plated and incubated with serially diluted 1V209 nanoshells conjugates at different coating densities (high, medium, or low density conjugates, unconjugated TLR7 ligand 1V209, or silica nanoshells for 18 hours. Control cells were treated with 1 μM resiquimod or 0.5% DMSO as vehicle. IL-6 (A) and IL-12 (B) released in the culture supernatants of mouse BMDCs were measured using ELISA. (C) Cytotoxicity in BMDCs was measured by MTT assay. (D) IL-6 released in the culture supernatants of human PBMCs. (E) IL-6 released in the culture supernatants BMDCs isolated from TLR7 deficient mice.
(§2) The correlation between TLR7 ligands density and cytokines induction level was further investigated. To test this, mouse bone marrow-derived dendritic cells (BMDCs) or human peripheral blood mononuclear cells (PBMCs) were treated with unconjugated 1V209, SiO2 nanoshells, or 1V209-nanoshell conjugates with different coating densities (high, medium, or low coating densities). The levels of IL-6 and IL-12 release in the culture supernatant were measured. […] Different formula of conjugates were also tested their cytotoxicity in BMDCs. […] To determine whether the immune potency of 1V209-nanoshell conjugates was TLR7 specific, conjugates was performed in TLR7 deficient BMDCs. […] Thus, high coating of TLR7 agonists silica shells are denoted as 1v209-NS conjugates in the following description.

TLR7 [2] = target: T1, TLR7; assay: IL-12 release in mouse BMDCs (ELISA); type: cell-based
Experimental: as §1
FIG. 23. In vitro cytokine induction of NS-TLR in murine cells. Mouse BMDCs (10^5 cells) were plated and incubated with serially diluted 100 nm NS-TLR at different coating densities for 18 hours. IL-12 released in the culture supernatants of mouse BMDCs incubated with unconjugated 1V209, high, medium, low coating density NS-TLR, and silica shells. IL-12 cytokine was measured via ELISA. All data are representative dose response curves in mean±SD with triplicate technical repeats. Data are representative of three independent experiments showing similar results. Data were analyzed by two-way ANOVA with Tukey's post hoc analysis.
as §2

CT26 tumors = assay: CT26 tumor model, intratumoral monotherapy (tumor growth, CD3 IHC, IFN-γ RT-qPCR); type: in vivo, mouse; conditions: single agent
Excerpt: FIGS. 13A-13F. Tumor growth regression in mice treated with NS-TLR7a. BALB/c mice were implanted with CT26 cells and treatment began when tumors reached 100 mm^3. Mice (n=5/group) were randomized and treated with vehicle (PBS), silica NS, unconjugated agonist (TLR7a), or NS-TLR7a every other day. Tumor tissues were collected on day 10 post treatment for analysis. A) Protocol of treatment. B) Average tumor growth curves per treatment. (C and D) Immunohistochemistry (IHC) images of CD3^+ cells infiltrating into the tumor environments for (C) unconjugated TLR7a or (D) TLR7a-NS conjugates locally injected tumor. (E and F) IFN-γ gene expression level (E) and (F) quantified CD3^+ T cells (F) in tumor samples for vehicle, NS, TLR7a, and TLR7a-NS conjugate treated groups (n=4-5/group). Representative IHC images were shown. […]
Animals and Tumor Model: Mouse colon cancer cell line CT26 (Cat. No. CRL-2638) was purchased from American Type Culture Collection (ATCC). […] Tumor volume was determined by caliper with the formula: volume (mm^3)=(width×width×length)/2. […]
To test the anti-tumor effects of TLR7 with or without conjugation onto silica nanoshells in vivo, silica NS, unconjugated TLR7a (TLR7 agonist), and NS-TLR7a were tested in a CT26 mouse tumor model. […] On day 8, tumors were harvested for immunohistochemistry (IHC) analysis and CD3^+ cells were assessed as T cell population in the tumor microenvironment.

[3] = BMDCs, 18 hours, ELISA, means ± SD

Emax, IL-6, normalized to unconjugated 1V209 (=1X) (TLR7 [1]): 1 ×
EC50 (TLR7 [1]; [3]): 1080 ± 101 nM
Emax, IL-6 (TLR7 [1]; [3]): 9.9 ± 1.0 ng/mL
Emax, IL-12, normalized to unconjugated 1V209 (=1X) (TLR7 [2]): 1 ×
EC50 (TLR7 [2]; [3]): 883 ± 193 nM
Emax, IL-12 (TLR7 [2]; [3]): 3.2 ± 2.3 ng/mL
Compound: COCCOc1nc(N)c2[nH]c(=O)n(Cc3ccc(C(=O)O)cc3)c2n1 [1V209, 4-[6-Amino-2-(2-methoxyethoxy)-8-oxo-7H-purin-9(8H)-yl]methylbenzoic acid]
IL-1β level (NLRP3 inflammasome): very low levels or zero
tumor remission (CT26 tumors): did not result in tumor remission
